Measurements: US12383515B2, “Compositions and methods of use of γ-ketoaldehyde scavengers for treating, preventing or improving nonalcoholic fatty liver disease (NAFLD), NASH, ALD or conditions related to the liver” (MTI Biotech, Inc., priority 2016, dated 2025)
“Also recorded” adds a separate entry of the source.

Columns and labels:
[1] = system: mouse hepatocytes; assay: Oxidant mediated cell death induced by t-butylhydroperoxide; type: cell-based; conditions: FIG. 3
Excerpt: There is considerable interest in identifying appropriate therapeutic interventions aimed at inhibiting the inflammatory processes and interrupting the immunogenic pathways associated with ALD.
This is a remarkable finding given the fact the pathogenesis of oxidative injury is quite complex and multifaceted. […] Obviously, the efficacy of 2-HOBA depends on its accumulation in target tissues, and this was recently supported by pharmacokinetic studies in an in vivo mouse model. […] The levels in the liver were about 10 times higher than in plasma.

[2] = system: HepaRG cells; assay: Ethanol exposure of HepaRG hepatocytes after 2-HOBA pre-treatment; type: cell-based, human
[3] = system: C57/BL6J mice; assay: NIAAA ethanol model (10 days ethanol in LDLD + binge) of alcoholic liver injury; type: in vivo, mouse; conditions: for Basophils / WBC / eosinophils, % of WBC / lymphocytes, % of WBC / monocytes, % of WBC: 0.5 g/L in LDLD; for AST: serum
Method: 2-HOBA and ethanol were concurrently administered to C57/BL6J mice to establish the efficacy of 2-HOBA in mitigating ethanol-mediated liver dysfunction (increased AST and ALT), reducing γ-KA formation, favorably altering immune responses and stimulating beneficial intracellular signaling pathways. […] 2-HOBA (0.5 g/L in Lieber-DeCarli liquid diet, LDLD) was administered to mice prior to ethanol treatment for 14 days to examine 2-HOBA efficacy in mitigating liver injury. Ethanol (5% v/v) was administered using the NIAAA model (10 days ethanol in LDLD+binge). […] White blood cell and lymphocyte cell counts were reduced while eosinophil and basophil counts were increased with ethanol relative to maltodextrin feeding (Table 1), consistent with other reports of alcoholic liver injury. Such responses were not observed in the presence of 2-HOBA.
An additional cohort of mice were administered a 14-day pretreatment of 2-HOBA (1.0 g/L) prior to administration of ethanol using the NIAAA model. Mice administered ethanol consumed less food and consequently weighed ˜2.5 g less than maltodextrin-fed controls at the end of study.

[4] = system: DIAMOND mice; assay: DIAMOND mouse model of NAFLD/NASH; type: in vivo; conditions: 1 g/L in drinking water, Western diet
Method: Twelve 8-wk old male DIAMOND mice were placed on ad libitum high fat diet (Harlan—ENVIGO TD.88317) and water containing glucose (18.9% w/v) and fructose (23.1% w/v); all mice remained on this diet throughout the study protocol. […] The vehicle control group received water without 2-HOBA (with glucose and fructose). Body weight and food intake were measured weekly. At ˜23 wks of age, all animals underwent a glucose tolerance test (GTT) and MRI imaging to assess hepatic fat. For the GTT, animals were fasted for 12 hours and then glucose (2 g/kg bw of a 100 mg/mL glucose in sterile water) was administered by oral gavage. Blood was sampled at 0, 15, 30, 45, 60, 90, and 120 minutes after glucose administration and area under the curve was calculated. Animals were sacrificed at 24 wks of age (12 weeks of 2-HOBA or vehicle treatment). Tissues and serum were collected for analysis.
Serum levels of glucose, alanine transaminase, and aspartate transaminase were measured. […] Significance was set at α=0.05.

[5] = system: STAM mice
[6] = system: cyclooxygenase enzymes; conditions: cited from earlier work
[7] = system: HepG2 cells; conditions: varying concentrations of H2O2; cited from earlier work
[8] = 1, 3, and 10 g/L for 7 days; cited from earlier work
[9] = 2-HOBA + ETOH, 2-HOBA 1.0 g/L, 14-day pretreatment
[10] = 2-HOBA + MD, 2-HOBA 1.0 g/L, 14-day pretreatment
[11] = 1 g/L in drinking water, 6 weeks, vs vehicle

SMILES: NCc1ccccc1O [2-HOBA, 2-Hydroxybenzylamine]
- cell death induced by t-butylhydroperoxide (tBHP) [1]: almost completely prevented
- reactive oxygen species formation ([2]; 24 hr pre-treatment 0, 250, 500 and 1000 μM, ethanol 0-200 mM, 24 hr, FIG. 4A): did not affect
- cell death by ethanol ([2]; 24 hr pre-treatment 0, 250, 500 and 1000 μM, ethanol 0-200 mM, 24 hr, FIG. 4B): almost completely prevented
- ALT levels in culture media ([2]; 24 hr pre-treatment 0, 250, 500 and 1000 μM, ethanol 0-200 mM, 24 hr, FIG. 5A): near normalization
- AST levels in culture media ([2]; 24 hr pre-treatment 0, 250, 500 and 1000 μM, ethanol 0-200 mM, 24 hr, FIG. 5B): near normalization
- intensity of ~18 kD anti-D11 cross-reactive (γ-KA adducted) band ([2]; pre-treatment 250 or 500 μM for 24 hr, ethanol, SDS-PAGE, D11 ScFv, FIG. 6): restored to levels observed in untreated controls
- body weight ([3]; 0.5 g/L 2-HOBA in LDLD): not significantly impacted
- food intake ([3]; 0.5 g/L 2-HOBA in LDLD): not significantly impacted
- increases in serum ALT ([3]; 2-HOBA 0.5 g/L): did not attenuate
- increases in serum AST ([3]; 2-HOBA 0.5 g/L): did not attenuate
- hepatic isofurans (IsoF) ([3]; 2-HOBA 1.0 g/L + ETOH, FIG. 8): significant reductions; also recorded: ameliorated
- hepatic isoprostanes (IsoP) ([3]; 2-HOBA 1.0 g/L + ETOH, FIG. 8): significant reductions; also recorded: ameliorated
- kidney isoprostane levels ([3]; 2-HOBA 1.0 g/L + ETOH, P<0.05 versus Con+ETOH): 1.3 ± 0.1 ng/g
- Basophils ([3]; 2-HOBA + ETOH): 1.27 ± 0.26^# x10^3/μl
- WBC ([3]; 2-HOBA + ETOH): 3.11 ± 0.66 x10^3/μl
- eosinophils, % of WBC ([3]; 2-HOBA + ETOH): 2.71 ± 0.46%
- lymphocytes, % of WBC ([3]; 2-HOBA + ETOH): 50.4 ± 4.59%
- monocytes, % of WBC ([3]; 2-HOBA + ETOH): 6.33 ± 1.11%
- ALT ([3]; 2-HOBA + ETOH, 2-HOBA 0.5 g/L): 443.7 ± 66.2 U/L
- AST ([3]; 2-HOBA + ETOH, 2-HOBA 0.5 g/L): 1725.0 ± 300.2 U/L
- BUN (blood urea nitrogen) ([3]; 2-HOBA + ETOH, 2-HOBA 1.0 g/L): 22.6 ± 1.7 mg/dL
- CRE (creatinine) ([3]; 2-HOBA + ETOH, 2-HOBA 1.0 g/L): 0.3 ± 0.04 mg/dL
- ALT [3, 9]: 164.4±20.8 U/L
- AST [3, 9]: 676.6±86.7 U/L
- WBC ([3]; 2-HOBA + MD (maltodextrin)): 6.08 ± 1.05 x10^3/μl
- Basophils ([3]; 2-HOBA + MD): 0.60 ± 0.14 x10^3/μl
- eosinophils, % of WBC ([3]; 2-HOBA + MD): 1.79 ± 0.4%
- lymphocytes, % of WBC ([3]; 2-HOBA + MD): 58.1 ± 5.45%
- monocytes, % of WBC ([3]; 2-HOBA + MD): 6.66 ± 0.92%
- ALT ([3]; 2-HOBA + MD, 2-HOBA 0.5 g/L): 54.3 ± 20.1 U/L
- AST ([3]; 2-HOBA + MD, 2-HOBA 0.5 g/L): 566.5 ± 34.1 U/L
- BUN (blood urea nitrogen) ([3]; 2-HOBA + MD, 2-HOBA 1.0 g/L): 34.6 ± 2.9 mg/dL
- CRE (creatinine) ([3]; 2-HOBA + MD, 2-HOBA 1.0 g/L): 0.3 ± 0.05 mg/dL
- ALT [3, 10]: 127.5 ± 78.59 U/L
- AST [3, 10]: 693.6 ± 173.1 U/L
- hepatic triglyceride content ([3]; ETOH-challenged mice pre-treated with 2-HOBA 1.0 g/L): trended to be lower
- ethanol responses: reduced white blood cell and lymphocyte counts, increased eosinophil and basophil counts ([3]; ethanol relative to maltodextrin feeding, 0.5 g/L 2-HOBA): not observed
- kidney isoprostane formation ([3]; pre-treatment 14 days at 1.0 g/L): decreased
- liver injury (elevated γ-KAs and liver function enzymes) upon ethanol exposure ([3]; pre-treatment with 2-HOBA 1.0 mg/ml (1.0 g/L), 14 days): significantly reduces; also recorded: reduced
- liver weight ([4]; FIGS. 15-16): trend for a reduction
- liver enzyme ALT ([4]; serum, FIG. 16H): significant reduction
- liver enzyme AST ([4]; serum, FIG. 16I): significant reduction
- ALT [5, 11]: trending towards reduction
- insulin [5, 11]: trending towards reduction
- lipids [5, 11]: trending towards reduction
- liver to body weight ratios [5, 11]: significantly reduced
- liver weight [5, 11]: significantly reduced
- serum isoprostanes [5, 11]: significantly reduced
- NAFLD severity ([5]; FIG. 12): reduce
- NALP1 ([5]; liver): decrease
- expression of pyruvate dehydrogenase kinase 4 (pdk4) ([5]; liver): significantly decreased
- signaling through FOXO1 ([5]; liver immunoblot): without significantly altering
- AKT phosphorylation ([5]; liver immunoblot, FIG. 13): dramatically increased
- GSK30 phosphorylation ([5]; liver immunoblot, FIG. 13): dramatically increased
- signaling through ERK ([5]; liver immunoblot, FIG. 13): without significantly altering
- signaling through mTOR ([5]; liver immunoblot, FIG. 13): without significantly altering
- markers of hepatic insulin sensitivity ([5]; mouse, in vivo): restores
- NLRP1-inflammasome activation ([5]; oral 2-HOBA administration): blocked
- inhibition of cyclooxygenase enzymes [6]: does not inhibit
- oxidant mediated cell death [7]: protective effect
- levels in the liver relative to plasma [8]: about 10 times
- liver levels of 2-HOBA [8]: dose-dependent increases
- plasma levels of 2-HOBA [8]: dose-dependent increases
